What was measured:
[1] = system: human endothelial cells (HUVEC cells); assay: In-vitro inhibition of the interleukin-2 (Proleukin) induced VLS: spherical deformation of HUVEC cells; format: cell-based; settings: Proleukin in combination with 20 mM of substance, microscopic assessment after 4 to 6 days
Description: In-vitro examinations on the inhibition of the VLS induced by interleukin-2. Using human endothelial cells (HUVEC cells) the inhibition of the IL-2 induced VLS through ectoine and hydroxyectoine was investigated in an in-vitro system. In this context the concentrations of Proleukin® (by Chiron) were determined that lead to the spherical deformation of the HUVEC cells. The spherical deformation of HUVEC cells is considered as a sign for the triggering of the VLS, cf. Baluna et al., PNAS 3957-3962, March 1999. Same as VLS, this phenotype visible under the light microscope is based on the bonding of membrane proteins, the integrins. The cells were incubated with Proleukin solely or in combination with ectoine and hydroxyectoine. To verify the specificity of the compatible solutes also trehalose and glucose were employed additionally. After 4 to 6 days the proportion of normal and spherically deformed cells of a visual field are determined by microscopic assessment.

[2] = system: NK cells and T cells of healthy-blood donors; assay: Proleukin-induced interferon-γ synthesis of human lymphocytes (ELISA of supernatant); format: cell-based; settings: 250 U Proleukin in combination with 20 mM hydroxyectoine, 48 hours, FIG. 2
Text: Effects of hydroxyectoine on the Proleukin-induced interferon-γ-synthesis of human lymphocytes.
interleukin-2, IL-2, same as Proleukin leads to the activation of immune effector cells which can be determined, inter alia, by an increased interferon-γ secretion of NK cells and T-lymphocytes.
For this purpose NK cells and T cells of healthy-blood donors were isolated by means of the MACS technique (Magnetic Cell Sorting, Milteniy). The of detection of the cells expressing the surface markers CE 56, NKG2D and CD 3 was brought about by FACS analyses.
The cells without further additives have been incubated for 48 hours with 250 U Proleukin or with 250 U Proleukin in combination with 20 mM hydroxyectoine. Following this, the concentration of interferon-γ was determined in the supernatant of the cells with the aid of ELISA (triple determinations from two independent experiments).

SMILES | reduction of the Proleukin-induced VLS phenotype (spherically deformed HUVEC cells; VLS inhibition percentage, FIG. 1) [1] | inhibition of the induction of interferon-γ synthesis (concentration of interferon-γ in the supernatant) [2]
CC1=N[C@H](C(=O)O)CCN1 [ectoine, (4S)-2-methyl-1,4,5,6-tetrahydropyrimidine-4-carboxylic acid] | significantly reduce the VLS phenotype | –
CC1=N[C@H](C(=O)O)[C@@H](O)CN1 [hydroxyectoine, (4S,5S)-5-hydroxy-2-methyl-1,4,5,6-tetrahydropyrimidine-4-carboxylic acid] | significantly reduce the VLS phenotype | does not inhibit the induction of the interferon-γ synthesis, on the contrary slightly increased values were found
